{"source": "patent US20020142347A1", "about": "“Biosensor” (BIOSENSOR ApS, priority 2000, published 2002)", "key": {"[1]": {"molecular_target": "T1, FACI53 (Bos taurus, UniProt P07107, A54C)", "T1 construct": "badan (6-bromoacetyl-2-dimethylaminonaphthalene) fluorophore on the introduced Cys-53; made in house; host or cells: E. coli BL21(DE3)pLysS, pET3a vector", "T1 sequence (P07107 2-87 A54C)": "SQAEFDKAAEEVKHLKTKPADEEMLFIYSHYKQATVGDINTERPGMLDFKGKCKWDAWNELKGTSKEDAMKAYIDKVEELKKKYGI", "assay": "Isothermal titration calorimetry of acyl-CoA binding to FACI53", "parameters": "species or system bovine", "description": "Reference is made to FIG. 2. and FIG. 3. which depict the emission spectra of FACI24 and FACI53 titrated with increasing concentrations of CoA, C4-, C8-, C12-, C16- and C20-CoA esters. The addition of ligand and measurement of emission of FACI24 and FACI53 was performed as described in example 2. The increased addition of ligand to the mutated and modified proteins caused a proportional spectral change. The normal physiological binding profile was confirmed by direct binding studies using isoelectrical focusing as predicted in FIG. 4. […] The results clearly indicate that fluorescence emission at 470 nm may provide a measure for the concentration of free unbound long-chain(>C12)-acyl-CoA ester.\nQuantitative determination of binding affinities (KD) were performed by isothermal titration micro calorimetry as previously described (Faergeman et. al., 1996; Biochemistry 35, 14118-14126). Qualitative evaluation of relative binding affinities were determined by isoelectrical focusing using the Pharmacia Fast Gel system according to the prescriptions given by the manufacture. […] The fluorescence emission was measured on a SPEX FLOUROLOG (Industries Inc, Edison N.J., USA) with excitation at 400 nm and emission scan from 400 nm to 550 nm. […]"}, "[2]": {"molecular_target": "T1, FACI53", "assay": "Fluorescence emission change of FACI-53 on titration with CoA and acyl-CoA esters", "format": "binding, bovine"}}}
{"compound": "CCCCCCCCCCCCCCCC(=O)SCCNC(=O)CCNC(=O)[C@H](O)C(C)(C)COP(=O)(O)OP(=O)(O)OC[C@H]1O[C@@H](n2cnc3c(N)ncnc32)[C@H](O)[C@@H]1OP(=O)(O)O", "note": "[C16:0-CoA, palmitoyl-CoA]", "values": [{"measurement": "Binding to FACI53 by isothermal titration calorimetry", "setting": "[1]", "result": "binding was confirmed"}, {"measurement": "Magnitude of emission of FACI-53, fold increase", "setting": "[2]", "result": 1.3, "unit": "fold"}, {"measurement": "Fluorescence emission maximum of FACI-53 with ligand", "setting": "[2]; 525 nm when no ligand present, excitation 400 nm", "result": 496, "unit": "nm"}, {"measurement": "Relative emission of FACI-53 at 495 nm, fold increase", "setting": "[2]; emission at 495 nm", "result": 2.2, "unit": "fold"}]}
